For one molecule, GI50 and EC50 results are on record in ChEMBL document CHEMBL1128017, “Antineoplastic agents 323. Isolation and structure of phakellistatin 6 from a Chuuk archipelago marine sponge” (1994).

In brackets after ≈: the same amount, converted by molar mass. Where a SMILES comes first, the peptide text is derived from it.

Common to all, as to format: functional
Test [1] deals with NCI-H460. In words: Compound was tested for inhibition of NCI-H460 human lung cancer cell line.
The subject of test [2] is SK-MEL-5. Description: Compound was tested for inhibition of SK-MEL-5 human melanoma cancer cell line.
In test [3] the test system is P388. Description: Compound was tested for inhibition of murine P388 lymphocytic leukemia cancer cell line. The note with it: Mus musculus, read-out: ED50 (the source's name).
For test [4], the system named is SF-295. Description: Compound was tested for inhibition of SF-295 human CNS cancer cell line.
The test system of test [5] is KM-20L2. Description: Compound was tested for inhibition of KM20L2 human colon cancer cell line.
For test [6], the system named is A498. Description: Compound was tested for inhibition of A498 human renal cancer cell line.
Test [7] concerns OVCAR-3. In words: Compound was tested for inhibition of OVCAR-3 human ovarian cancer cell line.

In general, GI50 refers to the concentration giving 50% growth inhibition. High values mean less potent growth inhibition, low ones more potent growth inhibition. In the case of `CC[C@H](C)[C@@H]1NC(=O)[C@@H]2CCCN2C(=O)[C@H](CC(C)C)NC(=O)[C@H](Cc2c[nH]c3ccccc23)NC(=O)[C@@H]2CCCN2C(=O)[C@H](Cc2ccccc2)NC(=O)[C@@H]2CCCN2C1=O` (cyclo(FPWLPIP)), the GI50 is 0.019 µg/mL (≈ 0.0223 µM) in test [1]; 0.032 µg/mL (≈ 0.0376 µM) in test [2]; 0.041 µg/mL (≈ 0.0482 µM) in test [4]; 0.021 µg/mL (≈ 0.0247 µM) in test [5]; 0.078 µg/mL (≈ 0.0917 µM) in test [6]; 0.025 µg/mL (≈ 0.0294 µM) in test [7]. Also, the EC50 in test [3] turned out to be 0.185 µg/mL (≈ 0.217 µM).
